# Test results reported in US11214594B2, “Antimicrobial peptide having synergistic antibacterial effect with antibiotics on multidrug resistant bacteria, and use thereof” (priority 2016, dated 2022).
# Like-named read-outs stand apart in the source and are kept apart here. Where a SMILES comes first, the peptide text is derived from it. [ ]: non-standard residue; d: D form.
# Tests used:
# MDREC 1229 = type: cell-based, Escherichia coli
# Method in brief: (§1)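 Broth microdilution in MH medium; strains were diluted to 2×10^6 CFU per ml before plating. Peptide was serially diluted stepwise at 2:1 starting from its MIC, and MH-diluted antibiotic was then added to determine MIC. The reversed arrangement was also tested.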
# MDRAB 12036 = type: cell-based, Acinetobacter baumannii
# Method in brief: (§2)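 Peptides were serially diluted twofold in Mueller-Hinton medium and combined 1:1 with bacterial suspensions prepared at 2×10^6 CFU. Readout was the minimal inhibitory concentration, i.e. the lowest concentration with no growth.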
# S. epidermidis = experiment: microbe, parasite or virus in culture; type: cell-based, Staphylococcus epidermidis
# Method in brief: as §2
# MDREC 1238 = type: cell-based, Escherichia coli
# Method in brief: as §2
# MDRPA 2003 = type: cell-based, Pseudomonas aeruginosa
# Method in brief: as §2
# MDRAB 12035 = experiment: MIC of antibiotic during combined treatment with antimicrobial peptide; type: cell-based, Acinetobacter baumannii
# Method in brief: as §1
# P. aeruginosa = experiment: microbe, parasite or virus in culture; type: cell-based, Pseudomonas aeruginosa
# Method in brief: as §2
# A. baumannii = experiment: MIC of antibiotic during combined treatment with antimicrobial peptide; type: cell-based, Acinetobacter baumannii; conditions: for Antibiotic MIC, Erythromycin / Antibiotic MIC, Linezolid / Antibiotic MIC, Vancomycin: A. baumannii
# Method in brief: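 First, antibiotic solution is diluted with MH medium; next, the dilution is dispensed into wells containing peptide; finally, the orientation is swapped and MIC of each mixture determined.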
# [1] = peptide treatment concentration 1 μg/ml
# [2] = peptide treatment concentration 2 μg/ml
# [3] = peptide treatment concentration 4 μg/ml
# [4] = peptide treatment concentration 6 μg/ml
# [5] = peptide treatment concentration 8 μg/ml
# [6] = peptide treatment concentration 16 μg/ml
# [7] = peptide treatment concentration 32 μg/ml
# [8] = peptide treatment concentration 64 μg/ml
# [9] = combined with peptide at 2 μg/ml
# [10] = combined with peptide at 4 μg/ml
# [11] = combined with peptide at 6 μg/ml
# [12] = combined with peptide at 8 μg/ml
# [13] = combined with peptide at 16 μg/ml
# [14] = combined with peptide at 32 μg/ml
# [15] = combined with peptide at 64 μg/ml
smiles,measurement,setting,value
"CC[C@H](C)[C@H](NC(=O)[C@H](CCCCN)NC(=O)[C@H](Cc1c[nH]c2ccccc12)NC(=O)[C@@H](N)CCCNC(=N)N)C(=O)N[C@@H](Cc1ccccc1)C(=O)N[C@@H](CCCCN)C(=O)N[C@@H](CCCCN)C(=O)N[C@H](C(=O)N[C@H](CC(C)C)C(=O)N[C@@H](CCCCN)C(=O)N[C@@H](CC(C)C)C(=O)N[C@@H](CC(C)C)C(=O)N[C@@H](Cc1c[nH]cn1)C(=O)N[C@@H](CCC(=O)O)C(=O)N[C@@H](C)C(=O)N[C@@H](CCCCN)C(=O)N[C@@H](CCCCN)C(=O)N[C@@H](Cc1c[nH]c2ccccc12)C(N)=O)[C@@H](C)CC [PapMA-24, RWK IFK KIl KLL HEA KKW-NH2] (H-RWKIFKKI[dL]KLLHEAKKW-NH2; N-terminus assumed)",Peptide MIC during treatment with antibiotic,MDREC 1229; linezolid 512 μg/ml (Conc./MIC 1),0 µg/mL
same,Peptide MIC during treatment with antibiotic,MDREC 1229; linezolid […] (Conc./MIC 1/2),1 µg/mL
same,Peptide MIC during treatment with antibiotic,MDREC 1229; linezolid […] (Conc./MIC 1/4),2 µg/mL
same,Peptide MIC during treatment with antibiotic,MDREC 1229; vancomycin 512 μg/ml (Conc./MIC 1/2),2 µg/mL
same,Peptide MIC during treatment with antibiotic,MDREC 1229; vancomycin 1024 μg/ml (Conc./MIC 1),1 µg/mL
same,Peptide MIC during treatment with antibiotic,MDREC 1229; vancomycin […] (Conc./MIC 1/4),4 µg/mL
same,Peptide MIC during treatment with antibiotic,MDREC 1229; vancomycin […] (Conc./MIC 1/8),8 µg/mL
same,Minimal inhibitory concentration MIC,MDRAB 12036,32 µg/mL
same,Minimal inhibitory concentration MIC,S. epidermidis,>128 µg/mL
same,Minimal inhibitory concentration MIC,MDREC 1238,32 µg/mL
same,Minimal inhibitory concentration MIC,MDRPA 2003,64 µg/mL
same,Erythromycin MIC during combined treatment with peptide,MDRAB 12035; [1],32 µg/mL
same,Linezolid MIC during combined treatment with peptide,MDRAB 12035; [1],>128 µg/mL
same,Vancomycin MIC during combined treatment with peptide,MDRAB 12035; [1],>128 µg/mL
same,Erythromycin MIC during combined treatment with peptide,MDRAB 12035; [2],32 µg/mL
same,Linezolid MIC during combined treatment with peptide,MDRAB 12035; [2],>128 µg/mL
same,Vancomycin MIC during combined treatment with peptide,MDRAB 12035; [2],>128 µg/mL
same,Erythromycin MIC during combined treatment with peptide,MDRAB 12035; [3],16 µg/mL
same,Linezolid MIC during combined treatment with peptide,MDRAB 12035; [3],64 µg/mL
same,Vancomycin MIC during combined treatment with peptide,MDRAB 12035; [3],64 µg/mL
same,Erythromycin MIC during combined treatment with peptide,MDRAB 12035; [4],2 µg/mL
same,Linezolid MIC during combined treatment with peptide,MDRAB 12035; [4],16 µg/mL
same,Vancomycin MIC during combined treatment with peptide,MDRAB 12035; [4],32 µg/mL
same,Erythromycin MIC during combined treatment with peptide,MDRAB 12035; [5],1 µg/mL
same,Linezolid MIC during combined treatment with peptide,MDRAB 12035; [5],8 µg/mL
same,Vancomycin MIC during combined treatment with peptide,MDRAB 12035; [5],16 µg/mL
same,Erythromycin MIC during combined treatment with peptide,MDRAB 12035; [6],0.25 µg/mL
same,Linezolid MIC during combined treatment with peptide,MDRAB 12035; [6],4 µg/mL
same,Vancomycin MIC during combined treatment with peptide,MDRAB 12035; [6],8 µg/mL
same,Erythromycin MIC during combined treatment with peptide,MDRAB 12035; [7],0 µg/mL
same,Linezolid MIC during combined treatment with peptide,MDRAB 12035; [7],0 µg/mL
same,Vancomycin MIC during combined treatment with peptide,MDRAB 12035; [7],0 µg/mL
same,Erythromycin MIC during combined treatment with peptide,MDRAB 12035; [8],0 µg/mL
same,Linezolid MIC during combined treatment with peptide,MDRAB 12035; [8],0 µg/mL
same,Vancomycin MIC during combined treatment with peptide,MDRAB 12035; [8],0 µg/mL
same,Minimal inhibitory concentration MIC,P. aeruginosa,64 µg/mL
same,Synergistic effect of antibacterial activity with existing antibiotics compared with PapMA-1,A. baumannii; A. baumannii and MDRAB 12035,level similar to that of PapMA-1 peptide
same,"Antibiotic MIC, Erythromycin",A. baumannii; [9],32 µg/mL
same,"Antibiotic MIC, Linezolid",A. baumannii; [9],>128 µg/mL
same,"Antibiotic MIC, Vancomycin",A. baumannii; [9],128 µg/mL
same,"Antibiotic MIC, Erythromycin",A. baumannii; [10],8 µg/mL
same,"Antibiotic MIC, Linezolid",A. baumannii; [10],64 µg/mL
same,"Antibiotic MIC, Vancomycin",A. baumannii; [10],64 µg/mL
same,"Antibiotic MIC, Erythromycin",A. baumannii; [11],2 µg/mL
same,"Antibiotic MIC, Linezolid",A. baumannii; [11],8 µg/mL
same,"Antibiotic MIC, Vancomycin",A. baumannii; [11],16 µg/mL
same,"Antibiotic MIC, Erythromycin",A. baumannii; [12],0.5 µg/mL
same,"Antibiotic MIC, Linezolid",A. baumannii; [12],4 µg/mL
same,"Antibiotic MIC, Vancomycin",A. baumannii; [12],8 µg/mL
same,"Antibiotic MIC, Erythromycin",A. baumannii; [13],0 µg/mL
same,"Antibiotic MIC, Linezolid",A. baumannii; [13],0 µg/mL
same,"Antibiotic MIC, Vancomycin",A. baumannii; [13],0 µg/mL
same,"Antibiotic MIC, Erythromycin",A. baumannii; [14],0 µg/mL
same,"Antibiotic MIC, Linezolid",A. baumannii; [14],0 µg/mL
same,"Antibiotic MIC, Vancomycin",A. baumannii; [14],0 µg/mL
same,"Antibiotic MIC, Erythromycin",A. baumannii; [15],0 µg/mL
same,"Antibiotic MIC, Linezolid",A. baumannii; [15],0 µg/mL
same,"Antibiotic MIC, Vancomycin",A. baumannii; [15],0 µg/mL
